Assay results taken from US20260242359A1, “IRHOM2 INHIBITORS AND USES THEREOF” (NEW YORK SOCIETY FOR THE RELIEF OF THE RUPTURED AND …, priority 2023, published 2026).

Columns and labels:
[1] = test system: PMA-induced release of endogenous IL-6R from human peripheral blood mononuclear cells (PBMCs); assay: Example 14: ELISA-based IL-6R release assay, PMA-induced, PBMCs from healthy donor; type: cell-based; details: 10 μM final concentration, PMA 25 ng/ml, delta Buffer stimulated vs unstimulated = 100% inhibition; for inhibition at 10 µM: Homo sapiens, PBMC
Description: In the following study, ELISA-based IL-6R release assays were performed to analyze the inhibitory effects of Compounds 1, 2, 3, 4, 5, and 7 on PMA-induced release of endogenous IL-6R from primary human material obtained from healthy donor using peripheral blood mononuclear cells (PBMCs). The ELISA-based IL-6R release assay that was used in this example is described below.
In brief, on day 1, Nunc black MaxiSorp® 96-well plates (Thermo Fisher Scientific, USA) were coated overnight with […] per well of mouse anti-human IL-6R capture antibody (provided as part of the DuoSet ELISA kit) at 2 μg/ml TBS at 4° C.
40,000 PBMCs from healthy donor (SciRhom GmbH, Germany) in 80 μl of normal growth medium were seeded in each well of Greiner CELLSTAR V-bottom 96-well plates (Greiner Bio-One, Germany) and pre-incubated with 20 μl per well of standard growth medium supplemented with Batimastat (BB94, Abcam, UK) at 50 μM as positive control (for a final concentration of 10 μM in the resulting 100 μl sample volume), compounds of the invention at 50 μM (for a final concentration of 10 μM in the resulting 100 μl sample volume) and in case of Buffer stimulated and unstimulated controls with DMSO (Carl Roth, Germany) at 50 μM (for a final concentration of 10 μM in the resulting 100 μl sample volume) at 37° C., 5% CO2 for 30 minutes. Subsequently, cells (except those for unstimulated controls) were stimulated with 20 μl per well of PMA (Sigma-Aldrich, USA) at 150 ng/ml in growth medium for a final concentration of 25 ng/ml at 37° C., 5% CO2 for 22 hours.
On day 2, the capture antibody solution was removed and MaxiSorp® plates were blocked with 300 μl per well of TBS, 1% BSA at room temperature for 2-3 hours. Meanwhile, the 96-well plates were centrifuged to pellet cells. In parallel, blocking buffer was removed from the MaxiSorp® plates and plates were washed 4 times with 350 μl TBS-T (Carl Roth, Germany) per well on a 96-head plate washer (Tecan Group, Switzerland). To avoid drying-up, 30 μl TBS were added to each well of the MaxiSorp® plates immediately, followed by the transfer of 70 μl cell-free supernatant per sample. Additionally, 100 μl recombinant human IL-6R protein (provided as part of the DuoSet ELISA kit) diluted in TBS at defined concentrations were added to the plate as standard references. Plates were incubated at room temperature for 2 hours. After 4 times washing with 350 μl TBS-T (Carl Roth, Germany) per well on a 96-head plate washer (Tecan Group, Switzerland) and careful removal of all buffer traces after the fourth cycle, 100 μl biotinylated goat anti-human IL-6R detection antibody (provided as part of the DuoSet ELISA kit) at 100 ng/ml TBS were added per well and, protected from direct light, plates were incubated at room temperature for 2 hours. After 4 times washing with 350 μl TBS-T (Carl Roth, Germany) per well on a 96-head plate washer (Tecan Group, Switzerland) and careful removal of all buffer traces after the fourth cycle, 100 μl streptavidin-AP (R&D Systems, USA) diluted 1:10,000 in TBS were added to each well and, again protected from direct light, plates were incubated at room temperature for 30 minutes. Following another round of 4 times washing with 350 μl TBS-T (Carl Roth, Germany) per well on a 96-head plate washer (Tecan Group, Switzerland) and careful removal of all buffer traces after the fourth cycle, 100 μl AttoPhos substrate solution (Promega, USA) per well was added for incubation in the dark at room temperature for 1 hour. Using an infinite M1000 (Tecan Group, Switzerland) microplate reader, the fluorescence of each well was collected at an excitation wavelength of 435 nm and an emission wavelength of 555 nm.
The delta between Buffer stimulated and Buffer unstimulated was defined 100% inhibition.

[2] = test system: PMA-stimulated TGFα release from HEK-293 cells (substrate of iRhom1/ADAM17 and iRhom2/ADAM17); assay: Counter screen (Example 4b): PMA-stimulated TGFα release from HEK-293 cells, AP readout; type: cell-based; details: Homo sapiens, HEK293, HEK-293 cells expressing TGFα-AP, PMA 100 ng/mL, 2 h
Description: A tertiary counterscreen was also performed to monitor the release of TGFα, which is a substrate of iRhom1/ADAM17 and iRhom2/ADAM17, so its release should not be blocked by an iRhom2-selective inhibitor (Maretzky T et al. (July 2013), “iRhom2 controls the substrate selectivity of stimulated ADAM117-dependent ectodomain shedding”, PNAS 110(28): 11433-11438; and Li X et al. (May 2015), “iRhoms 1 and 2 are essential upstream regulators of ADAM17-dependent EGFR signaling”, PNAS 112(19): 6080-6085).
Expression plasmids for alkaline phosphatase (AP)-fused human KL2 and TGFα had been previously designed and generated through gene synthesis followed by subcloning into the pcDNA3.1(+)/Hygro expression vector. […] Subsequently, DNA amplifications were performed to obtain sufficient amounts of the expression vectors. The quality of DNA and gene sequences were confirmed through restriction digest and Sanger sequencing. In parallel, cell culture of HEK-293 cells was initiated. Master and working cell banks were prepared, scaled up and transfected with the respective constructs by electroporation. During cell culturing, cell density and viability were monitored to ensure optimal conditions for the transfections. After PMA stimulation, AP-coupled KL2 or TGFα were detected by measurement of AP activity in the supernatant.
After electroporation, cells were further cultured in presence of selection antibiotics, hygromycin B, to generate stably transfected polyclonal cell pools. For both assays, KL2 and TGFα shedding, the respective selected pool turned out to be suitable. Final assay conditions were determined for the selected pools. For all experiments, batimastat (BB94, 10 μM) was used as positive control for full inhibition of KL2 or TGFα shedding.
The wells of sterile 384-well flat bottom clear plates for TGF-AP assays were coated with 10 μL of 0.1 mg/mL poly-d-lysine for 3-4 hr at 25° C. or overnight at 4° C., then washed 2× with PBS and patted dry. 60 μL of cells (20,000/well) were added to the sterile 384-well plate and incubated in Optimem (with 2% FCS and 1% Pen-strep) overnight at 37° C. (5% CO2). After incubation overnight, 55 μL medium were removed with a BioTek EL406 and 10 μL of prediluted compounds were added to the cells for a final concentration of 20 μM. After incubation for 15 min, 15 μL of PMA (100 ng/mL final conc.) were added. The cells were incubated for 2 h at 37° C. (5% CO2). Then, the plates were centrifuged for 5 min at 1000 rpm and 12 μL of the supernatant was transferred to a fresh 384 well plate. 12 μL of pNPP p-nitrophenyl phosphate (final 1 M pNPP) was added. AP reaction was performed for 1 h at 37° C. The reaction was stopped by addition of 12 μL of NaOH (1 M final conc.), the plates were centrifuged to remove air bubbles and the absorbance of pNP was measured at 405 nm.

Compound | inhibition of PMA-induced release of IL-6R from PBMCs from healthy donor ([1]; 22 hours) | inhibition at 10 µM ([1]; 22 h) | inhibition at 10 µM ([1]; 22 hours) | IC50 [2]
CNC(=O)[C@H](Cc1ccccc1)NC(=O)[C@H](CC(C)C)[C@H](CSc1cccs1)C(=O)NO [Batimastat, reference compound] | 98.5% | 100% |  | 
CCC(=O)NCCc1c(/C=C2/C(=O)NC(=O)N(c3ccc(C)cc3C)C2=O)[nH]c2ccccc12 [Compound 1] |  |  | 112% | 
CCOC(=O)c1ccc(Nc2nc3nonc3n3nnnc23)cc1 [Compound 2] |  | 111% |  | 
O=C(c1c(Cl)cccc1Cl)N1CCC(Cc2ccc(F)cc2)CC1 [Compound 3] |  | 0% |  | > 40 µM
Cc1c(C(=O)NCc2cccs2)sc(=O)n1Cc1ccccc1 [Compound 4] |  | 6.2% |  | > 40 µM
Cc1c(C(=O)NCc2cccs2)sc(=O)n1Cc1ccccc1F [Compound 5] |  | 6.5% |  | > 40 µM
Cc1c(C(=O)NCc2ccco2)sc(=O)n1Cc1ccccc1F [Compound 7] |  | 59.1% |  | > 40 µM
